The source of these data is US20210391038A1, “SPECIFICALLY-SHAPED CRYSTAL OF COMPOUND AND METHOD FOR PRODUCING SAME” (TOWA PHARMACEUTICAL CO., LTD., priority 2018, published 2021).

Holding throughout (assay type): physicochemical
Data set [1] can be described thus: Sphericity from SEM images (ImageJ). Set-up: key: 1 = true sphere; closer to 1 = more spherical; mean of ≥5 particles. As to conditions: SEM image analysis, mean of particles. The source says: In the present description, “spherulite” means a crystal aggregate (polycrystal) which has a radial or concentric thin layered structure and has a spherical outer shape. Whether the crystal obtained by the method of the present invention is a spherulite or not can be determined, for example, by observing the outer shape of the crystal using SEM. For example, it can be discriminated by cutting the crystal aggregate and observing the internal structure thereof using SEM. The sphericity of the spherulite obtained by the method of the present invention is usually 0.60 or more, preferably 0.70 or more, more preferably 0.80 or more, particularly preferably 0.90 or more, and most preferably 0.95 or more. The sphericity can be calculated by the following method.
When an image of particles taken by SEM is analyzed using image processing software ImageJ, a coordinate group representing the position of pixels forming the outline of a particle is obtained. The length of the coordinate group is defined as N, and one pixel coordinate of each outline is defined as p[i] (1≤i≤N). The angle between a straight line l(k) connecting two points p[k] and p[k+N/D] and a straight line m(k) connecting two points p[k+N/D] and p[k+2N/D] is defined as θ(k) (−180°<θ<180°) (1≤k≤N, 1≤D≤N). D corresponds to the number of partitions of the outline. When N/D is not a natural number, the value is defined as the quotient obtained by dividing N by D. By calculating this angle with k=1 to N, N pieces of θ value can be obtained.
When the particle is a true sphere, θ(k) is 360/D, and the closer the particle is to a true sphere, the closer θ(k) is to this value. The error between θ(k) and the true value 360/D is evaluated by the root-mean-square error (RMSE) of the following formula:
Using the RMSE value of when D is 10 (θ(k)=36°), the sphericity is defined by the following formula: […]
The sphericity is 1 in a true sphere, and the closer the particle is to a true sphere, the closer the sphericity is to 1. Meanwhile, the sphericity of an ellipse whose long axis is infinitely long is zero. The sphericity is measured for five or more particles to calculate the mean. This mean is defined as the sphericity of each sample (see FIGS. 42 and 43).

A short description of data set [2]: Particle size from SEM images (equivalent circle diameter, mean particle size, crystal size). The following applies: for equivalent circle diameter: SEM image, ImageJ, trihydrate. How it is done:
“Equivalent circle diameter” in the present description is a diameter of a perfect circle corresponding to the area of individual particles in an image of particles taken by SEM, and is calculated from randomly selected 5 to 800 particles using image processing software ImageJ. The equivalent circle diameter of a spherulite obtained by the method of the present invention is preferably 25 μm or more, 30 μm or more, 35 μm or more, 40 μm or more, 45 μm or more, or 50 μm or more and 100 μm or less, 120 μm or less, 150 μm or less, 200 μm or less, 250 μm or less, 300 μm or less, 500 μm or less, or 1,000 μm or less. More preferably, the equivalent circle diameter is 25 to 500 μm or 30 to 300 μm.
The particle size distribution was measured in a dry manner using a spray particle size distribution analyzer AEROTRAC LDSA-SPR3500A manufactured by Microtrac Inc. The particle size distribution in Examples 2 and 7 was measured in a dry manner using a laser diffraction particle size distribution measurement MASTERSIZER 3000 manufactured by Malvern Panalytical Ltd. SEM images were measured using a scanning electron microscope JSM-IT100 manufactured by JEOL Ltd. Light microscope images were measured using an upright microscope BX53M manufactured by Olympus Corporation and a microscope digital camera DP74 manufactured by Olympus Corporation. Images for measuring the number of particles were obtained by a scanner GT-X830 manufactured by SEIKO EPSON CORPORATION. The powder X-ray diffraction (XRD) was measured using a desktop X-ray diffraction device MiniFlex300 manufactured by Rigaku Corporation. The specific surface area was measured by the BET fluid process (gas used: pure nitrogen) using a fully automatic specific surface area measuring device Macsorb HM-1208 manufactured by Mountech Co., Ltd. The moisture content was measured using a trace moisture measuring device AQ-2200 manufactured by […] SANGYO Co., Ltd. The dissolution profile was measured using μDISS Profiler manufactured by Pion Inc. Centrifugal classification was performed using a high-efficiency precision forced air classifier Lab Calssiel N-01 manufactured by SEISHIN […] Co., Ltd. Image analysis was performed using image processing software ImageJ developed by the National Institute of Health (NIH). The particle strength was measured using a particle hardness measuring device NEW GRANO manufactured by OKADA SEIKO CO., LTD. The true density was measured using a dry automatic densimeter AccuPyc II 1340-10CC manufactured by Shimadzu Corporation. The purity of a compound was measured by a high performance liquid chromatograph (LC-20A) manufactured by Shimadzu Corporation.
The spherulite of azithromycin monohydrate produced in Example 12 was cut, and the section was observed by SEM (FIG. 4). The crystal size at the outer edge was 5 to 10 μm, while the crystal size at the center was 0.2 to 1 μm.

Data set [3] can be described thus: Measurement of critical degree of supersaturation of spherulite. The following applies: entry 19; solvent 1 EtOH, solvent 2 H2O, solvent 2/solvent 1 ratio 1; crystallization 35 °C. The source says:
“Supersaturated solution” in the present description means a solution in a state of containing a solute exceeding the solubility. As the degree of supersaturation, “degree of supersaturation” can be used. Regarding the degree of supersaturation, when the concentration (mass concentration (g/g)) of a compound dissolved in a supersaturated solution is defined as C and the solubility of the compound is defined as Cs, the degree of supersaturation S can be represented by the following formula: […]
“Critical degree of supersaturation” in the present description means the lowest degree of supersaturation required to obtain a specifically-shaped crystal. […] The value of a critical degree of supersaturation varies depending on the shape of a crystal. For example, all of values of a critical degree of supersaturation required to obtain a plate crystal, a critical degree of supersaturation required to obtain a needle crystal, and a critical degree of supersaturation required to obtain a spherulite are different. The critical degree of supersaturation required to obtain a spherulite is higher than the critical degree of supersaturation required to obtain a plate crystal or a needle crystal.
The actual measured value of the critical degree of supersaturation (S*) can be measured as follows:
(1) 100 particles are observed by SEM. (2) 5 to 10 particles whose shape is close to a desired specific shape are selected, and the shape is evaluated. In particular, when the desired specific shape is a sphere, the sphericity is evaluated. (3) Based on the evaluation index of the shape, whether the selected particles have the desired specific shape or not is determined. In particular, when the desired specific shape is a sphere, the case where the sphericity is 0.60 or more is determined as a spherulite. (4) The above-mentioned operation is performed for each sample having a different degree of supersaturation during crystallization, and the minimum value of a degree of supersaturation having the specifically-shaped particles is determined as the critical degree of supersaturation. The difference between the maximum value of a degree of supersaturation not having the specifically-shaped particles and the critical degree of supersaturation should be 20% or less.
The critical degree of supersaturation of a spherulite of ketotifen fumarate was determined as follows. To 2.0 g of ketotifen fumarate, 10 mL (5 v/w) of methanol was added, followed by reflux to completely dissolve. This solution was added dropwise to 50 mL of isopropanol at 20° C. to prepare a supersaturated solution of ketotifen fumarate. The degree of supersaturation of the supersaturated solution at the end of dropwise addition was 9.0. The supersaturated solution was crystallized. The crystal was collected by filtration, followed by drying under reduced pressure at 40° C., thus obtaining a crystal of ketotifen fumarate.
Similarly, when a substrate and a solvent different from those mentioned above are used, a plurality of samples having a different degree of supersaturation are prepared and crystallized, and then the critical degree of supersaturation of the spherulite was measured.

Data set [4] is described as follows: Particle density, true density and particle packing rate. The protocol: “Particle density” in the present description is mass per unit volume when the volume of the substance itself as well as the volume of the open void and the closed void are included as the volume of polycrystalline particles. For example, when the polycrystalline particles are spherical particles, the particle density is calculated by the following formula using the mean mass of the polycrystalline particles and the mean volume of the polycrystalline particles:
Here, the mean mass of polycrystalline particles is calculated by measuring the number of polycrystalline particles contained in 1.0 mg or more, preferably 5.0 mg or more, and more preferably 10.0 mg or more of a sample by a scanner, etc. The mean volume of crystal particles is obtained by averaging the volume calculated by photographing 500 or more, preferably 1,000 or more, and more preferably 5,000 or more crystal particles by a light microscope, etc., using an equivalent circle diameter obtained from the projected area of polycrystalline particles, and assuming that the polycrystalline particles are true spheres. At this time, it is desirable that the distribution of the equivalent circle diameter is unimodal and the sharpness value is less than 1.5.
“Particle packing rate” of a polycrystal in the present description is a value calculated by the following formula:
Particle packing rate (%)=(particle density)/(true density of compound)×100 [Equation 8]
Here, “true density of compound” is a density of a substance itself not including a void. If no void exists at all inside or on the surface of a particle, the particle packing rate is 100%. The true density of a compound can be obtained by dry density measurement by the constant volume expansion method. Examples of the measuring device include a dry automatic densimeter AccuPyc II 1340-10CC manufactured by Shimadzu Corporation.
The particle size distribution was measured in a dry manner using a spray particle size distribution analyzer AEROTRAC LDSA-SPR3500A manufactured by Microtrac Inc. The particle size distribution in Examples 2 and 7 was measured in a dry manner using a laser diffraction particle size distribution measurement MASTERSIZER 3000 manufactured by Malvern Panalytical Ltd. SEM images were measured using a scanning electron microscope JSM-IT100 manufactured by JEOL Ltd. Light microscope images were measured using an upright microscope BX53M manufactured by Olympus Corporation and a microscope digital camera DP74 manufactured by Olympus Corporation. Images for measuring the number of particles were obtained by a scanner GT-X830 manufactured by SEIKO EPSON CORPORATION. The powder X-ray diffraction (XRD) was measured using a desktop X-ray diffraction device MiniFlex300 manufactured by Rigaku Corporation. The specific surface area was measured by the BET fluid process (gas used: pure nitrogen) using a fully automatic specific surface area measuring device Macsorb HM-1208 manufactured by Mountech Co., Ltd. The moisture content was measured using a trace moisture measuring device AQ-2200 manufactured by […] SANGYO Co., Ltd. The dissolution profile was measured using μDISS Profiler manufactured by Pion Inc. Centrifugal classification was performed using a high-efficiency precision forced air classifier Lab Calssiel N-01 manufactured by SEISHIN […] Co., Ltd. Image analysis was performed using image processing software ImageJ developed by the National Institute of Health (NIH). The particle strength was measured using a particle hardness measuring device NEW GRANO manufactured by OKADA SEIKO CO., LTD. The true density was measured using a dry automatic densimeter AccuPyc II 1340-10CC manufactured by Shimadzu Corporation. The purity of a compound was measured by a high performance liquid chromatograph (LC-20A) manufactured by Shimadzu Corporation. […]

Where a name gives a salt, the structure may show the parent alone.

Consider `CN(C)CC/C=C1/c2ccccc2COc2ccc(CC(=O)O)cc21` [Example 31, olopatadine], for which the “sphericity of the spherulite” value in data set [1] was determined as 0.96±0.02. For the same compound, in data set [2], the mean particle size was 167 μm.
As for `Cc1ccccc1C(=O)Nc1ccc(C(=O)N2CCCC(O)c3cc(Cl)ccc32)c(C)c1` (centres unmarked) [Example 28, tolvaptan], the “sphericity of the spherulite” value in data set [1] is recorded as 0.94±0.02. In addition, the mean particle size in data set [2] was 145 μm.
With `COc1ccc2[n-]c([S@@+]([O-])Cc3ncc(C)c(OC)c3C)nc2c1.COc1ccc2[n-]c([S@@+]([O-])Cc3ncc(C)c(OC)c3C)nc2c1.O.O.O.[Mg+2]` [Esomeprazole magnesium trihydrate], in data set [3], the “Critical degree of supersaturation S Experimental value” is 1.6. In data set [4], the true density is 1.37 g/mL.
As to `COc1ccc2[n-]c([S@@+]([O-])Cc3ncc(C)c(OC)c3C)nc2c1.COc1ccc2[n-]c([S@@+]([O-])Cc3ncc(C)c(OC)c3C)nc2c1.O.O.O.[Mg+2]` [Example 4, esomeprazole magnesium trihydrate], the “sphericity of the spherulite” value in data set [1] (trihydrate) is given as 0.93±0.02. In data set [2], the equivalent circle diameter is listed as 183±8 μm.
On to `COc1cccc(C2(O)CCCCC2CN(C)C)c1` (centres unmarked) [Example 29, tramadol hydrochloride], for which the “sphericity of the spherulite” value in data set [1] was found to be 0.90±0.08. The mean particle size in data set [2] is given as 319 μm.
`COc1ccc2[n-]c([S@@+]([O-])Cc3ncc(C)c(OC)c3C)nc2c1.COc1ccc2[n-]c([S@@+]([O-])Cc3ncc(C)c(OC)c3C)nc2c1.O.O.O.[Mg+2]` [Example 3, esomeprazole magnesium trihydrate]: in data set [1] (trihydrate), the “sphericity of the spherulite” value is recorded as 0.97±0.01. Further, the equivalent circle diameter in data set [2] is 58±7 μm.
In data set [4] (particle density / true density x 100, trihydrate), `COc1ccc2[n-]c([S@@+]([O-])Cc3ncc(C)c(OC)c3C)nc2c1.COc1ccc2[n-]c([S@@+]([O-])Cc3ncc(C)c(OC)c3C)nc2c1.O.O.O.[Mg+2]` [Sample 1, esomeprazole magnesium trihydrate] had a Particle packing rate of 54%. Moreover, the Particle density in data set [4] (trihydrate) worked out at 0.74 g/mL.
